The source of these data is patent US12071441B2, “10-(di(phenyl)methyl)-4-hydroxy-8,9,9A,10-tetrahydro-7H-pyrrolo[1′,2′:4,5]pyrazino[1,2-b]pyridazine-3,5-dione derivatives and related compounds as inhibitors of the orthomyxovirus replication for treating influenza” (Novartis AG, priority 2018, dated 2024).

The structures appear in SMILES notation. pEC50: −log10 of the molar value. Some results are limits rather than exact numbers.

What all share (experiment): microbe, parasite or virus in culture
Holding throughout (type): cell-based

The test system of experiment [1] is influenza A virus minigenome (PB2, PB1, PA, NP; luciferase reporter) in 293T cells, RNP_Alaska. The note with it: HEK-293T, 48 h.
Experiment [2] concerns influenza A virus minigenome (PB2, PB1, PA, NP; luciferase reporter) in 293T cells, RNP_CAL. The following applies: HEK-293T, 48 h, read-out: RNP_CAL_EC50.
The subject of experiment [3] is influenza A virus minigenome (PB2, PB1, PA, NP; luciferase reporter) in 293T cells, RNP_Hubei. The note with it: HEK-293T, 48 h.

Take `CC(C)CC(=O)Oc1c2n(ncc1=O)[C@@H]([C@H](c1ccccc1)c1cccc(F)c1F)[C@H]1CCCN1C2=O` [Example 60, (9aR,10S)-10-((R)-(2,3-difluorophenyl)(phenyl)methyl)-3,5-dioxo-3,5,8,9,9a,10-hexahydro-7H-pyrrolo[1′,2′:4,5]pyrazino[1,2-b]pyridazin-4-yl 3-methylbutanoate]: the pEC50 in experiment [1], in experiment [2] and in experiment [3] was greater than 7.00 throughout.

Take `COC(=O)OCOc1c2n(ncc1=O)[C@@H]([C@H](c1cccc(F)c1)c1cccc(F)c1F)[C@H]1CCCN1C2=O` [Example 95, (((9aR,10S)-10-((R)-(2,3-difluorophenyl)(3-fluorophenyl)methyl)-3,5-dioxo-3,5,8,9,9a,10-hexahydro-7H-pyrrolo[1′,2′:4,5]pyrazino[1,2-b]pyridazin-4-yl)oxy)methyl methyl carbonate]: the pEC50 in experiment [1], in experiment [2] and in experiment [3] was greater than 7.00 throughout.

Take `CN(C)C(=O)OCOc1c2n(ncc1=O)[C@@H]([C@H](c1ccccc1)c1cccc(F)c1F)[C@H]1CCCN1C2=O` [Example 57, (((9aR,10S)-10-((R)-(2,3-difluorophenyl)(phenyl)methyl)-3,5-dioxo-3,5,8,9,9a,10-hexahydro-7H-pyrrolo[1′,2′:4,5]pyrazino[1,2-b]pyridazin-4-yl)oxy)methyl dimethylcarbamate]: the pEC50 in experiment [1], in experiment [2] and in experiment [3] was greater than 7.00 throughout.

With `Cc1oc(=O)oc1COc1c2n(ncc1=O)[C@@H]([C@H](c1ccccc1)c1cccc(F)c1F)[C@H]1CCCN1C2=O` [Example 43, (9aR,10S)-10-((R)-(2,3-difluorophenyl)(phenyl)methyl)-4-((5-methyl-2-oxo-1,3-dioxol-4-yl)methoxy)-8,9,9a,10-tetrahydro-7H-pyrrolo[1′,2′:4,5]pyrazino[1,2-b]pyridazine-3,5-dione], the pEC50 in experiment [1], in experiment [2] and in experiment [3] was greater than 7.00 throughout.

On to `CCN(C)C(=O)OCOc1c2n(ncc1=O)[C@@H]([C@H](c1ccccc1)c1cccc(F)c1F)[C@H]1CCCN1C2=O` [Example 68, (((9aR,10S)-10-((R)-(2,3-difluorophenyl)(phenyl)methyl)-3,5-dioxo-3,5,8,9,9a,10-hexahydro-7H-pyrrolo[1′,2′:4,5]pyrazino[1,2-b]pyridazin-4-yl)oxy)methyl ethyl(methyl)carbamate], for which the pEC50 in experiment [1], in experiment [2] and in experiment [3] was no more than 6.00 throughout.

Take `O=C1c2c(O)c(=O)cnn2[C@@H]([C@H](c2ccc(F)cc2)c2ccc(OC(F)(F)F)cc2)[C@H]2CCCN12` [Example 23, (9aR,10S)-10-((S)-(4-fluorophenyl)(4-(trifluoromethoxy)phenyl)methyl)-4-hydroxy-8,9,9a,10-tetrahydro-7H-pyrrolo[1′,2′:4,5]pyrazino[1,2-b]pyridazine-3,5-dione]: the pEC50 in experiment [1] is no more than 6.00; in experiment [2], 6.00 to 7.00; in experiment [3], 6.00 to 7.00.

With `CCN(CC)C(=O)OCOc1c2n(ncc1=O)[C@@H]([C@H](c1ccccc1)c1cccc(F)c1F)[C@H]1CCCN1C2=O` [Example 67, (((9aR,10S)-10-((R)-(2,3-difluorophenyl)(phenyl)methyl)-3,5-dioxo-3,5,8,9,9a,10-hexahydro-7H-pyrrolo[1′,2′:4,5]pyrazino[1,2-b]pyridazin-4-yl)oxy)methyl diethylcarbamate], the pEC50 in experiment [1], in experiment [2] and in experiment [3] was no more than 6.00 each time.

Turning to `CC(=O)Oc1c2n(ncc1=O)[C@@H]([C@H](c1cccc(F)c1)c1cccc(F)c1F)[C@H]1CCCN1C2=O` [Example 105, (9aR,10S)-10-((R)-(2,3-difluorophenyl)(3-fluorophenyl)methyl)-3,5-dioxo-3,5,8,9,9a,10-hexahydro-7H-pyrrolo[1′,2′:4,5]pyrazino[1,2-b]pyridazin-4-yl acetate], the pEC50 in experiment [1], in experiment [2] and in experiment [3] was greater than 7.00 throughout.

As to `CC(C)C(=O)Oc1c2n(ncc1=O)[C@@H]([C@H](c1cccc(F)c1)c1cccc(F)c1F)[C@H]1CCCN1C2=O` [Example 107, (9aR,10S)-10-((R)-(2,3-difluorophenyl)(3-fluorophenyl)methyl)-3,5-dioxo-3,5,8,9,9a,10-hexahydro-7H-pyrrolo[1′,2′:4,5]pyrazino[1,2-b]pyridazin-4-yl isobutyrate], the pEC50 in experiment [1], in experiment [2] and in experiment [3] was greater than 7.00 each time.

On to `CC(=O)OCOc1c2n(ncc1=O)[C@@H]([C@H](c1ccccc1)c1cccc(F)c1F)[C@H]1CCCN1C2=O` [Example 76, (((9aR,10S)-10-((R)-(2,3-difluorophenyl)(phenyl)methyl)-3,5-dioxo-3,5,8,9,9a,10-hexahydro-7H-pyrrolo[1′,2′:4,5]pyrazino[1,2-b]pyridazin-4-yl)oxy)methyl acetate], for which the pEC50 in experiment [1], in experiment [2] and in experiment [3] was greater than 7.00 throughout.

As for `COc1cccc([C@@H](c2ccc(F)cc2)[C@H]2[C@H]3CCCN3C(=O)c3c(O)c(=O)cnn32)c1` [Example 24, (9aR,10S)-10-((R)-(4-fluorophenyl)(3-methoxyphenyl)methyl)-4-hydroxy-8,9,9a,10-tetrahydro-7H-pyrrolo[1′,2′:4,5]pyrazino[1,2-b]pyridazine-3,5-dione], the pEC50 in experiment [1], in experiment [2] and in experiment [3] was 6.00 to 7.00 in each case.

For the compound `Cc1c(F)cccc1[C@@H](c1ccccc1)[C@H]1[C@H]2CCCN2C(=O)c2c(O)c(=O)cnn21` [Example 19, (9aR,10S)-10-((R)-(3-fluoro-2-methylphenyl)(phenyl)methyl)-4-(|1-oxidanyl)-8,9,9a,10-tetrahydro-7H-pyrrolo[1′,2′:4,5]pyrazino[1,2-b]pyridazine-3,5-dione], the pEC50 in experiment [1], in experiment [2] and in experiment [3] was greater than 7.00 throughout.

For the compound `COCCC(=O)Oc1c2n(ncc1=O)[C@@H]([C@H](c1cccc(F)c1)c1cccc(F)c1F)[C@H]1CCCN1C2=O` [Example 112, (9aR,10S)-10-((R)-(2,3-difluorophenyl)(3-fluorophenyl)methyl)-3,5-dioxo-3,5,8,9,9a,10-hexahydro-7H-pyrrolo[1′,2′:4,5]pyrazino[1,2-b]pyridazin-4-yl 3-methoxypropanoate], the pEC50 in experiment [1], in experiment [2] and in experiment [3] was greater than 7.00 throughout.

As to `COc1ccccc1[C@H](c1ccc(F)cc1)[C@H]1[C@H]2CCCN2C(=O)c2c(O)c(=O)cnn21` [Example 6, (9aR,10S)-10-((S)-(4-fluorophenyl)(2-methoxyphenyl)methyl)-4-hydroxy-8,9,9a,10-tetrahydro-7H-pyrrolo[1′,2′:4,5]pyrazino[1,2-b]pyridazine-3,5-dione], the pEC50 in experiment [1], in experiment [2] and in experiment [3] was 6.00 to 7.00 in each case.

For the compound `O=C1c2c(O)c(=O)cnn2[C@@H]([C@H](c2ccccc2)c2cccc(F)c2F)[C@@H]2COCCN12` [Example 14, (10aR,11S)-11-((R)-(2,3-difluorophenyl)(phenyl)methyl)-4-hydroxy-7,8,10a,11-tetrahydro-10H-pyridazino[1′,6′:4,5]pyrazino[2,1-c][1,4]oxazine-3,5-dione], the pEC50 in experiment [1], in experiment [2] and in experiment [3] was greater than 7.00 throughout.

As to `Cc1cccc([C@H](c2ccc(F)cc2)[C@H]2[C@H]3CCCN3C(=O)c3c(O)c(=O)cnn32)c1` [Example 10, (9aR,10S)-10-((S)-(4-fluorophenyl)(m-tolyl)methyl)-4-hydroxy-8,9,9a,10-tetrahydro-7H-pyrrolo[1′,2′:4,5]pyrazino[1,2-b]pyridazine-3,5-dione], the pEC50 in experiment [1], in experiment [2] and in experiment [3] was greater than 7.00 each time.

For `CC(=O)Oc1c2n(ncc1=O)[C@@H]([C@H](c1ccccc1)c1cccc(F)c1F)[C@H]1CCCN1C2=O` [Example 58, (9aR,10S)-10-((R)-(2,3-difluorophenyl)(phenyl)methyl)-3,5-dioxo-3,5,8,9,9a,10-hexahydro-7H-pyrrolo[1′,2′:4,5]pyrazino[1,2-b]pyridazin-4-yl acetate], the pEC50 in experiment [1], in experiment [2] and in experiment [3] was greater than 7.00 throughout.

With `Cc1oc(=O)oc1COc1c2n(ncc1=O)[C@@H]([C@H](c1ccc(F)cc1)c1cccc(F)c1F)[C@H]1CCCN1C2=O` [Example 80, (9aR,10S)-10-((R)-(2,3-difluorophenyl)(4-fluorophenyl)methyl)-4-((5-methyl-2-oxo-1,3-dioxol-4-yl)methoxy)-8,9,9a,10-tetrahydro-7H-pyrrolo[1′,2′:4,5]pyrazino[1,2-b]pyridazine-3,5-dione], the pEC50 in experiment [1], in experiment [2] and in experiment [3] was greater than 7.00 in each case.

For the compound `CC(C)CC(=O)Oc1c2n(ncc1=O)[C@@H]([C@H](c1ccc(F)cc1)c1cccc(F)c1F)[C@H]1CCCN1C2=O` [Example 93, (9aR,10S)-10-((R)-(2,3-difluorophenyl)(4-fluorophenyl)methyl)-3,5-dioxo-3,5,8,9,9a,10-hexahydro-7H-pyrrolo[1′,2′:4,5]pyrazino[1,2-b]pyridazin-4-yl 3-methylbutanoate], the pEC50 in experiment [1], in experiment [2] and in experiment [3] was greater than 7.00 throughout.

In the case of `O=C(Oc1c2n(ncc1=O)[C@@H]([C@H](c1ccccc1)c1cccc(F)c1F)[C@H]1CCCN1C2=O)N1CCC(N2CCCCC2)CC1` [Example 65, (9aR,10S)-10-((R)-(2,3-difluorophenyl)(phenyl)methyl)-3,5-dioxo-3,5,8,9,9a,10-hexahydro-7H-pyrrolo[1′,2′:4,5]pyrazino[1,2-b]pyridazin-4-yl [1,4′-bipiperidine]-1′-carboxylate], the pEC50 in experiment [1] and in experiment [3] was no more than 6.00 in each case.
